How the values were obtained:
Puccinia triticina = assay: Wheat brown rust (PUCCRT) disease control on wheat seedlings; format: in vivo; conditions: for PUCCRT 1DP disease control rating, HV activity / PUCCRT 3DC disease control rating, HV activity: HV application at 100 ppm, wheat brown rust; for PUCCRT 1DP, LV activity at 125.1 g/H (% Control rating) / PUCCRT 3DC, LV activity at 125.1 g/H (% Control rating) / PUCCRT 1DP disease control rating, LV activity at 125.1 g/H / PUCCRT 3DC disease control rating, LV activity at 125.1 g/H: low volume application
Zymoseptoria tritici = assay: Leaf blotch of wheat (SEPTTR) disease control on wheat seedlings; format: in vivo; design: key to SEPTTR 1DP, HV activity at 100 ppm (% control rating) / SEPTTR 3DC, HV activity at 100 ppm (% control rating) / SEPTTR disease control, 1DP / SEPTTR disease control, 3DC / SEPTTR 1DP disease control rating, HV activity / SEPTTR 3DC disease control rating, HV activity / SEPTTR 3DC, LV activity at 125.1 g/H (% Control rating) / SEPTTR 1DP, LV activity at 125.1 g/H (% Control rating) / SEPTTR 1DP disease control rating, LV activity at 125.1 g/H / SEPTTR 3DC disease control rating, LV activity at 125.1 g/H / SEPTTR 3DC disease control rating, HV activity at 100 ppm / SEPTTR 1DP disease control rating, HV activity at 100 ppm / HV activity at 100 ppm SEPTTR 3DC (disease control rating) / HV activity at 100 ppm SEPTTR 1DP (disease control rating) / LV activity at 125.1 g/H SEPTTR 1DP (disease control rating) / LV activity at 125.1 g/H SEPTTR 3DC (disease control rating): A: > 80; B: ≤ 80; C: Not Tested; D: No Activity Observed in the Reported Assay; conditions: for SEPTTR 1DP disease control rating, HV activity / SEPTTR 3DC disease control rating, HV activity: HV application at 100 ppm, wheat leaf blotch; for SEPTTR 1DP, LV activity at 125.1 g/H (% Control rating) / SEPTTR 3DC, LV activity at 125.1 g/H (% Control rating) / SEPTTR 1DP disease control rating, LV activity at 125.1 g/H / SEPTTR 3DC disease control rating, LV activity at 125.1 g/H: low volume application
[1] = high volume application, 100 ppm, 1 day protectant
[2] = high volume application, 100 ppm, 3 day curative
[3] = HV application, 100 ppm, 1 Day Protectant
[4] = HV application, 100 ppm, 3 Day Curative

SMILES	PUCCRT 1DP disease control rating, HV activity (Puccinia triticina; 1 Day Protectant)	PUCCRT 3DC disease control rating, HV activity (Puccinia triticina; 3 Day Curative)	SEPTTR 1DP disease control rating, HV activity (Zymoseptoria tritici; 1 Day Protectant)	SEPTTR 3DC disease control rating, HV activity (Zymoseptoria tritici; 3 Day Curative)	PUCCRT 1DP, LV activity at 125.1 g/H (% Control rating) (Puccinia triticina; 1 Day Protectant)	PUCCRT 3DC, LV activity at 125.1 g/H (% Control rating) (Puccinia triticina; 3 Day Curative)	SEPTTR 1DP, LV activity at 125.1 g/H (% Control rating) (Zymoseptoria tritici; 1 Day Protectant)	SEPTTR 3DC, LV activity at 125.1 g/H (% Control rating) (Zymoseptoria tritici; 3 Day Curative)	also measured
COc1ccnc(C(=O)NC(C)C(=O)OC(C)C(Oc2ccc(F)cc2)C(C)C)c1O (stereo not drawn) [Cmpd 391]	A (> 80)	A (> 80)	A (> 80)	A (> 80)					
COc1cc(O[C@@H]([C@H](C)OC(=O)[C@H](C)NC(=O)c2nccc(OC)c2O)C(C)(C)C)ccc1Cl [Cmpd 1001]									PUCCRT 1DP disease control rating, HV activity at 100 ppm (Puccinia triticina; [1]): A (> 80); PUCCRT 3DC disease control rating, HV activity at 100 ppm (Puccinia triticina; [2]): A (> 80); SEPTTR 1DP disease control rating, HV activity at 100 ppm (Zymoseptoria tritici; [1]): B (≤ 80); SEPTTR 3DC disease control rating, HV activity at 100 ppm (Zymoseptoria tritici; [2]): D
CCC(CC)[C@@H](Oc1ccc(F)cc1)[C@H](C)OC(=O)[C@@H](NC(=O)c1nccc(OC)c1OCOC(C)=O)C(C)C [Cmpd 646]					A (> 80)	A (> 80)	B (≤ 80)	B (≤ 80)	PUCCRT 1DP, HV activity at 100 ppm (% control rating) (Puccinia triticina; [3]): A (> 80); PUCCRT 3DC, HV activity at 100 ppm (% control rating) (Puccinia triticina; [4]): A (> 80); SEPTTR 1DP, HV activity at 100 ppm (% control rating) (Zymoseptoria tritici; [3]): A (> 80); SEPTTR 3DC, HV activity at 100 ppm (% control rating) (Zymoseptoria tritici; [4]): A (> 80)
COc1ccnc(C(=O)N[C@H](C(=O)O[C@@H](C)[C@H](Oc2cccc(Cl)c2)C(C)C)C(C)C)c1OCOC(C)=O [Cmpd 564]					A (> 80)	A (> 80)	A (> 80)	A (> 80)	
CC[C@@H](CCOC)[C@@H](Oc1ccccc1)[C@H](C)OC(=O)[C@H](C)NC(=O)c1nccc(OC)c1O [Cmpd 305]	A (> 80)	A (> 80)	A (> 80)	A (> 80)					
CCCC(Oc1ccccc1)C(C)OC(=O)C(C)NC(=O)c1nccc(OC)c1O (stereo not drawn) [Cmpd 438]	A (> 80)	A (> 80)	A (> 80)	A (> 80)					
COc1ccnc(C(=O)N[C@@H](C)C(=O)O[C@@H](C)[C@@H](OC(=O)c2ccccc2)C(C)C)c1OC(C)=O [Cmpd 856]									PUCCRT 1DP disease control rating, LV activity at 125.1 g/H (Puccinia triticina; 1 day protectant): B (≤ 80); PUCCRT 3DC disease control rating, LV activity at 125.1 g/H (Puccinia triticina; 3 day curative): B (≤ 80); SEPTTR 1DP disease control rating, LV activity at 125.1 g/H (Zymoseptoria tritici; 1 day protectant): D; SEPTTR 3DC disease control rating, LV activity at 125.1 g/H (Zymoseptoria tritici; 3 day curative): D
C=C[C@H](C)[C@@H](Oc1ccccc1)[C@H](C)OC(=O)[C@H](C)NC(=O)c1nccc(OC)c1O [Cmpd 415]	A (> 80)	A (> 80)	A (> 80)	A (> 80)					
CCC(CC)[C@@H](Oc1ccc(C(F)(F)F)cc1)[C@H](C)OC(=O)[C@@H](NC(=O)c1nccc(OC)c1OCOC(C)=O)C(C)C [Cmpd 653]					A (> 80)	B (≤ 80)	D	B (≤ 80)	
COc1ccnc(C(=O)N[C@@H](C)C(=O)O[C@@H](C)[C@H](Oc2cccc(-c3ccccc3)c2)C(C)C)c1OCOC(C)=O [Cmpd 613]					A (> 80)	A (> 80)	B (≤ 80)	B (≤ 80)	
CCCO[C@@H](C(C)C)[C@H](C)OC(=O)[C@H](C)NC(=O)c1nccc(OC)c1OCOC(C)=O [Cmpd 850]									PUCCRT 1DP disease control rating, LV activity at 125.1 g/H (Puccinia triticina; 1 day protectant): B (≤ 80); PUCCRT 3DC disease control rating, LV activity at 125.1 g/H (Puccinia triticina; 3 day curative): A (> 80); SEPTTR 1DP disease control rating, LV activity at 125.1 g/H (Zymoseptoria tritici; 1 day protectant): D; SEPTTR 3DC disease control rating, LV activity at 125.1 g/H (Zymoseptoria tritici; 3 day curative): B (≤ 80)
